pIC50: −log10 of the molar value. Structures can show the parent of a compound that is named as a salt.
Key:
[1] = system: Phosphorylated Ribosomal Protein S6 (RPS6) in THP-1 cells; experiment: THP-1 RPS6 ELISA assay; assay type: cell-based, Human; conditions: Homo sapiens, THP-1, read-out: PI3Kγ_THP1_RPS6_ELISA IC50 (nM)
Procedure: Example A. THP-1 RPS6 ELISA Assay
To measure the Phosphorylated Ribosomal Protein S6 (RPS6) in cell lysates, THP-1 cells (Human Acute Monocytic Leukemia) are purchased from ATCC (Manassas, Va.) and maintained in RPMI with 10% FBS (Gibco/Life Technologies, Carlsbad, Calif.). For the assay, THP-1 cells are serum starved overnight in RPMI, then plated in RPMI (2×10^5 cells/well in 90 μL) into 96-well flat-bottom tissue culture treated plates (Corning, Corning, N.Y.), in the presence or absence of a concentration range of test compounds. Covered plates are incubated for 2 hours at 37° C., 5% CO2 then treated with or without 10 nM MCP-1 (MYBioSource, San Diego, Calif.) for 15 minutes at 37° C., 5% CO2. Plates are centrifuged at 1600 RPM and supernatants are removed. Cells are lysed in Lysis Buffer (Cell Signaling, Danvers, Mass.) with Protease Inhibitor (Calbiochem/EMD, Germany), PMSF (Sigma, St Louis Mo.), HALTS (Thermo Fisher, Rockford, Ill.) for 30 min on wet ice. Cell lysates are frozen at −80° C. before testing. The lysates are tested in the Human/Mouse/Rat Phospho-RPS6 ELISA (R&D Systems, Inc. Minn, Minn.). The plate is measured using a microplate reader (SpectraMax M5—Molecular Devices, LLC Sunnyvale, Calif.) set to 450 nm with a wavelength correction of 540. IC50 determination is performed by fitting the curve of inhibitor percent inhibition versus the log of the inhibitor concentration using the GraphPad Prism 5.0 software.

[2] = molecular target: PI3Kγ (p110γ) Recombinant Human Protein (Homo sapiens (Human), UniProt P48736); experiment: PI3K-γ scintillation proximity assay; assay type: biochemical; conditions: 20 μM PIP2, 2 μM ATP, 13 nM PI3Kγ, 120 min, room temperature
Source text: Example B. PI3K-γ Scintillation Proximity Assay
[γ-^33P]ATP (10 mCi/mL) and Wheat Germ Agglutinin (WGA) YSi SPA Scintillation Beads was purchased from PerkinElmer (Waltham, Mass.). Lipid kinase substrate, D-myo-Phosphatidylinositol 4,5-bisphosphate (PtdIns(4,5)P2)D (+)-sn-1,2-di-O-octanoylglyceryl, 3-O-phospho linked (PIP2), CAS 204858-53-7, was purchased from Echelon Biosciences (Salt Lake City, Utah). PI3Kγ (p110γ) Recombinant Human Protein was purchased from Life technology (Grand Island, N.Y.). ATP, MgCl2, DTT, EDTA, MOPS and CHAPS were purchased from SigmaAldrich (St. Louis, Mo.).
(§1) The kinase reaction was conducted in polystyrene 384-well Greiner Bio-one white plate from Thermo Fisher Scientific in a final volume of 25 μL. Inhibitors were first diluted serially in DMSO and added to the plate wells before the addition of other reaction components. The final concentration of DMSO in the assay was 2%. The PI3Kγ assay was carried out at room temperature in 20 mM MOPS, pH 6.7, 10 mM MgCl2, 5 mM DTT and CHAPS 0.03%. Reactions were initiated by the addition of ATP, the final reaction mixture consisted of 20 μM PIP2, 2 μM ATP, 0.5 μCi [γ-^33P] ATP, 13 nM PI3Kγ. Reactions were incubated for 120 min and terminated by the addition of 40 μL SPA beads suspended in quench buffer: 163 mM potassium phosphate pH 7.8, 20% glycerol, 25 mM EDTA. The final concentration of SPA beads is 1.0 mg/mL. After the plate sealing, plates were shaken overnight at room temperature and centrifuged at 1500 rpm for 10 min, the radioactivity of the product was determined by scintillation counting on Topcount (Perkin-Elmer). IC50 determination was performed by fitting the curve of percent of the solvent control activity versus the log of the inhibitor concentration using the GraphPad Prism 6.0 software.

[3] = molecular target: PI3Kδ (p110δ/p85α) Recombinant Human Protein (Homo sapiens (Human), UniProt O00329); experiment: PI3Kδ scintillation proximity assay; assay type: biochemical; conditions: 20 μM PIP2, 2 μM ATP, 3.4 nM PI3Kδ, 120 min, room temperature; read-out: PI3Kδ IC50
Procedure: PI3Kδ Scintillation Proximity Assay
[γ-^33P]ATP (10 mCi/mL) and Wheat Germ Agglutinin (WGA) YSi SPA Scintillation Beads was purchased from PerkinElmer (Waltham, Mass.). […] PI3Kδ (p110δ/p85α) Recombinant Human Protein was purchased from Eurofins (St Charles, Mo.). ATP, MgCl2, DTT, EDTA, MOPS and CHAPS were purchased from SigmaAldrich (St. Louis, Mo.).
as §1, with “PI3Kδ” for “PI3Kγ”, “ATP, 13 nM PI3Kγ. Reactions were incubated for 120 min and terminated by the addition of 40 μL SPA beads suspended in quench buffer: 163 mM potassium phosphate pH 7.8, 20% glycerol, 25 mM EDTA.” left out, “(PerkinElmer).” for “(Perkin-Elmer).”

Chain of PI3Kδ (p110δ/p85α) Recombinant Human Protein (O00329 whole entry): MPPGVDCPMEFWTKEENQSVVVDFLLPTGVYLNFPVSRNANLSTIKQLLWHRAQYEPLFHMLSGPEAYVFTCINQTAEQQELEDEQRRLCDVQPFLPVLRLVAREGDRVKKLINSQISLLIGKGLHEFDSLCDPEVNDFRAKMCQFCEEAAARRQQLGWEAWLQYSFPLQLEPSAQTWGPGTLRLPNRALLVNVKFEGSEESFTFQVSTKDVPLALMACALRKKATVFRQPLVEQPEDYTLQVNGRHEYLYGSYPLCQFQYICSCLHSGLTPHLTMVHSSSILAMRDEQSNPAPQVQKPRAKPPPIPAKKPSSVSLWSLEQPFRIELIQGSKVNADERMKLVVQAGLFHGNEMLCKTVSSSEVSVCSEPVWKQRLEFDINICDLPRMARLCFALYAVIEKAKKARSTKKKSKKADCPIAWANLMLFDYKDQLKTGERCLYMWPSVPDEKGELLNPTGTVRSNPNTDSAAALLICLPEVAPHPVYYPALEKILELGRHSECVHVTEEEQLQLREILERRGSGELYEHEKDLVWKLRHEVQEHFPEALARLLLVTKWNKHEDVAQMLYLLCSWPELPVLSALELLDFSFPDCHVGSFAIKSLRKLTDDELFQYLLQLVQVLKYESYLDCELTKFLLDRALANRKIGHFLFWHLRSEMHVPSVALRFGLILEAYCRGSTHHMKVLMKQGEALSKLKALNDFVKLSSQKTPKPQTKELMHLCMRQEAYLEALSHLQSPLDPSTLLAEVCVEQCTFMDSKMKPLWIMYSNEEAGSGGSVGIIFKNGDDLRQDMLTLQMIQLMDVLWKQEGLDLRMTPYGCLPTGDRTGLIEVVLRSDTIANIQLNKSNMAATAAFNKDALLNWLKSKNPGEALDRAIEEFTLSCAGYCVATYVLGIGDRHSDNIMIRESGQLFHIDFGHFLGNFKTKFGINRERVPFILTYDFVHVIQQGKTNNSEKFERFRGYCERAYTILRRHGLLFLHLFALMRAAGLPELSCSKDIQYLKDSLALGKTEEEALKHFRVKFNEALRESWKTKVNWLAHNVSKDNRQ
Chain of PI3Kδ (p110δ/p85α) Recombinant Human Protein (P27986 whole entry partner): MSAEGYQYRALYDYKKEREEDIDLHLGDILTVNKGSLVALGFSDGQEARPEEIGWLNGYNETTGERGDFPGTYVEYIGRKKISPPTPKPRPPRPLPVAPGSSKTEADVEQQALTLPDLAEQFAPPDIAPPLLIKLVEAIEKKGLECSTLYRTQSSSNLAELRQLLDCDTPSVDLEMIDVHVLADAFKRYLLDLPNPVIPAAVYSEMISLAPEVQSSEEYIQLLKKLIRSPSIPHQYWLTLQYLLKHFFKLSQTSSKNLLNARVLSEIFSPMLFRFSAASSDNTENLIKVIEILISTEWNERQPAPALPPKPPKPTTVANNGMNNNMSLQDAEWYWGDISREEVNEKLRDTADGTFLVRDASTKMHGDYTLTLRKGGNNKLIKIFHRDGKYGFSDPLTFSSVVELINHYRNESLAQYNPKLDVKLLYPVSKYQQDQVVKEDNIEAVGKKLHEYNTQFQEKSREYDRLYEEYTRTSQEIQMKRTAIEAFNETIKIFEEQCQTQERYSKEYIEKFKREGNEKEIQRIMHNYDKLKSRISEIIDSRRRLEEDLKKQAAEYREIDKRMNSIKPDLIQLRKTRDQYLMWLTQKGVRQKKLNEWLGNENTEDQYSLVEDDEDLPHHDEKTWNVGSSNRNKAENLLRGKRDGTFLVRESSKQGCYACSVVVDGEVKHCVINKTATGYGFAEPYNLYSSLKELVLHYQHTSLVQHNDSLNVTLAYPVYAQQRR
Chain of PI3Kγ (p110γ) Recombinant Human Protein (P48736 whole entry): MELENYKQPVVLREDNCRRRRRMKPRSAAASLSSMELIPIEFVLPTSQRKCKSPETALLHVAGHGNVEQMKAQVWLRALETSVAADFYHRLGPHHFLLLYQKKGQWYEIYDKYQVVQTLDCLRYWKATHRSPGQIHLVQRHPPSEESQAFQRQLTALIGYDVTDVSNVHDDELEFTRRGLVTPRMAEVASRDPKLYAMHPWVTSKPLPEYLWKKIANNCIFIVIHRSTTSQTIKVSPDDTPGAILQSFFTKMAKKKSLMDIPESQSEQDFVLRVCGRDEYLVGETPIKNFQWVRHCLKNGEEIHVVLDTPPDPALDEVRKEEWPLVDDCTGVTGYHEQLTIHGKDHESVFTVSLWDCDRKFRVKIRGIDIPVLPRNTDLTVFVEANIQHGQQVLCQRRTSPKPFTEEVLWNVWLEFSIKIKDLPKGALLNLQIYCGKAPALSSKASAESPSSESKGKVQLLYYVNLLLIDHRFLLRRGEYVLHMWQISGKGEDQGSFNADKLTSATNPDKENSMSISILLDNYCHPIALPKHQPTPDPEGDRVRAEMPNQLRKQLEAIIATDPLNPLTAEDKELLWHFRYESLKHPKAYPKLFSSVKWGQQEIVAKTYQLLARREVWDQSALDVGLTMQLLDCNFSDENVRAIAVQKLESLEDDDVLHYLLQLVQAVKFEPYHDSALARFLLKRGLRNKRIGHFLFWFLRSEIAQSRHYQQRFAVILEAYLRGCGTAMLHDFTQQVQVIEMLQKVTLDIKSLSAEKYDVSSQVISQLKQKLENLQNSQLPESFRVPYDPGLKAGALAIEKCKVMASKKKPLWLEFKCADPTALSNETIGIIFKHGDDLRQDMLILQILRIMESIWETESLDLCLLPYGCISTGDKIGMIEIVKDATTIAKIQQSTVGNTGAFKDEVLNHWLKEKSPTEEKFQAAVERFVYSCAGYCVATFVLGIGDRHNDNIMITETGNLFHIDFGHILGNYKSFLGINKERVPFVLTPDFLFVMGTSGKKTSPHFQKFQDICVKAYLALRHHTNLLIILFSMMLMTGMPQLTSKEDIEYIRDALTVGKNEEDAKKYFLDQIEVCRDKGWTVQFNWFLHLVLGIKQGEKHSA

Row | Structure (SMILES) | IC50 [1] [nM] | pIC50 [2] | pIC50 [3]
1 | Cc1ncc(-c2cn3c(-c4cc(C(O)(CO)C(F)(F)F)ccc4C)cnc3c(N)n2)s1 (racemic) [Example 70, 2-(3-(8-Amino-6-(2-methylthiazol-5-yl)imidazo[1,2-a]pyrazin-3-yl)-4-methylphenyl)-3,3,3-trifluoropropane-1,2-diol trifluoroacetate salt] | < 100 | – | –
2 | [2H]C([2H])([2H])n1nccc1-c1cn2c(-c3cc(C(O)(CO)C(F)(F)F)ccc3C)cnc2c(N)n1 (single isomer, unassigned) [Example 67, 2-(3-(8-Amino-6-(1-(methyl-d3)-1H-pyrazol-5-yl)imidazo[1,2-a]pyrazin-3-yl)-4-methylphenyl)-3,3,3-trifluoropropane-1,2-diol trifluoroacetate salt] | – | > 7.00 | 6.30 to 7.00
3 | Cc1ccc(C(C)(O)C(F)(F)F)cc1-c1cnc2c(N)nc(CC(=O)N(C)C)cn12 (stereo not shown) [Example 169, 2-(8-amino-3-(2-methyl-5-(1,1,1-trifluoro-2-hydroxypropan-2-yl)phenyl)imidazo[1,2-a]pyrazin-6-yl)-N,N-dimethylacetamide trifluoroacetate salt] | – | 6.30 to 7.00 | 5.70 to 6.30
4 | CC(O)(c1cc(-c2cnc3c(N)nc(C(F)(F)F)cn23)c2ccn(S(=O)(=O)c3ccccc3)c2c1)C(F)(F)F (racemic) [Example 224, 2-(4-(8-Amino-6-(trifluoromethyl)imidazo[1,2-a]pyrazin-3-yl)-1-(phenylsulfonyl)-1H-indol-6-yl)-1,1,1-trifluoropropan-2-ol] | – | 6.30 to 7.00 | 5.70 to 6.30
5 | CC(=O)NCC(O)(c1ccc(C)c(-c2cnc3c(N)nc(C(F)(F)F)cn23)c1)C(F)(F)F (stereo not shown) [Example 211, N-(2-(3-(8-amino-6-(trifluoromethyl)imidazo[1,2-a]pyrazin-3-yl)-4-methylphenyl)-3,3,3-trifluoro-2-hydroxypropyl)acetamide trifluoroacetate] | – | > 7.00 | 6.30 to 7.00
6 | Cc1ccc(C(C)(O)C(F)F)cc1-c1cnc2c(N)nc(C3CC3CO)cn12 (single isomer, unassigned) [Example 80, 2-(3-(8-Amino-6-(2-(hydroxymethyl)cyclopropyl)imidazo[1,2-a]pyrazin-3-yl)-4-methylphenyl)-1,1-difluoropropan-2-ol] | – | > 7.00 | 5.70 to 6.30
7 | Cc1ccc(C(C)(O)C(F)(F)F)cc1-c1cnc2c(N)nc(N3CCC(O)CC3)cn12 (stereo not shown) [Example 65, 1-(8-Amino-3-(2-methyl-5-(1,1,1-trifluoro-2-hydroxypropan-2-yl)phenyl)imidazo[1,2-a]pyrazin-6-yl)piperidin-4-ol] | – | > 7.00 | 6.30 to 7.00
8 | CCNC(=O)c1cn2c(-c3cc(C(O)(CNC(C)=O)C(F)(F)F)ccc3C)cnc2c(N)n1 (stereo not shown) [Example 221, 3-(5-(3-acetamido-1,1,1-trifluoro-2-hydroxypropan-2-yl)-2-methylphenyl)-8-amino-N-ethylimidazo[1,2-a]pyrazine-6-carboxamide trifluoroacetate] | – | > 7.00 | 6.30 to 7.00
9 | Cc1ccc(C(C)(O)C(F)F)cc1-c1cnc2c(N)nc(N3CCC(C#N)CC3)cn12 (stereo not shown) [Example 64, 1-(8-Amino-3-(5-(1,1-difluoro-2-hydroxypropan-2-yl)-2-methylphenyl)imidazo[1,2-a]pyrazin-6-yl)piperidine-4-carbonitrile] | – | > 7.00 | 5.70 to 6.30
10 | Cc1ccc(C(O)(CNC(=O)c2ccccc2)C(F)(F)F)cc1-c1cnc2c(N)nc(C(F)(F)F)cn12 (stereo not shown) [Example 212, N-(2-(3-(8-amino-6-(trifluoromethyl)imidazo[1,2-a]pyrazin-3-yl)-4-methylphenyl)-3,3,3-trifluoro-2-hydroxypropyl)benzamide trifluoroacetate salt] | – | > 7.00 | 6.30 to 7.00
11 | CCOC(=O)C1CC1c1cn2c(-c3cc(C(C)(O)C(F)F)ccc3C)cnc2c(N)n1 (single isomer, unassigned) [Example 74, Ethyl 2-(8-amino-3-(5-(1,1-difluoro-2-hydroxypropan-2-yl)-2-methylphenyl)imidazo[1,2-a]pyrazin-6-yl)cyclopropane-1-carboxylate trifluoroacetate salt] | – | 5.70 to 6.30 | 5.70 to 6.30
12 | Cc1ccc(C(C)(O)C(F)(F)F)cc1-c1cnc2c(N)nc(C(=O)NCC(C)(C)O)cn12 (single isomer, unassigned) [Example 62, 8-amino-N-(2-hydroxy-2-methylpropyl)-3-(2-methyl-5-(1,1,1-trifluoro-2-hydroxypropan-2-yl)phenyl)imidazo[1,2-a]pyrazine-6-carboxamide] | – | > 7.00 | 6.30 to 7.00
13 | Cc1ccc(C(C)(O)C(F)(F)F)cc1-c1cnc2c(N)ncnn12 (stereo not shown) [Example 3, 2-(3-(4-Aminoimidazo[2,1-f][1,2,4]triazin-7-yl)-4-methylphenyl)-1,1,1-trifluoropropan-2-ol] | – | > 7.00 | 5.70 to 6.30
14 | Cc1ccc(C(C)(O)C(F)(F)C(F)(F)F)cc1-c1cnc2c(N)nc(C(F)(F)F)cn12 (single isomer, unassigned) [Example 59, 2-(3-(8-Amino-6-(trifluoromethyl)imidazo[1,2-a]pyrazin-3-yl)-4-methylphenyl)-3,3,4,4,4-pentafluorobutan-2-ol] | – | > 7.00 | 5.70 to 6.30
15 | Cc1ccc(C(O)(CCNC2CCOCC2)C(F)(F)F)cc1-c1cnc2c(N)nc(C(F)(F)F)cn12 (stereo not shown) [Example 17, 2-(3-(8-Amino-6-(trifluoromethyl)imidazo[1,2-a]pyrazin-3-yl)-4-methylphenyl)-1,1,1-trifluoro-4-((tetrahydro-2H-pyran-4-yl)amino)butan-2-ol bis(2,2,2-trifluoroacetate)] | – | > 7.00 | 5.70 to 6.30
16 | [2H]C([2H])([2H])c1ccc(C(O)(C(C)(C)O)C(F)(F)F)cc1-c1cnc2c(N)nc(C(F)(F)F)cn12 (racemic) [Example 235, 2-(3-(8-Amino-6-(trifluoromethyl)imidazo[1,2-a]pyrazin-3-yl)-4-(methyl-d3)phenyl)-1,1,1-trifluoro-3-methylbutane-2,3-diol trifluoroacetate salt] | – | > 7.00 | 6.30 to 7.00

Source: patent US10738057B2, “Tertiary alcohols as PI3K-γ inhibitors” (Incyte Corporation, priority 2017, dated 2020)
